The text below walks through data of patent US6391577B1, “Rapid electrochemical assay for antibiotic and cytotoxic drug susceptibility in microorganisms” (priority 1999, dated 2002).

Assay [1] concerns E. coli JM105. Description: Integrated current (charge) measurement after incubation with lysozyme or EDTA. The following applies: for Charge: single measurements, charge between 60 and 120 s. Type of assay: cell-based. The method, then: E. coli JM105 was grown in the same manner as in Example 1. The assay procedure used to determine the effect of lysozyme on mediated electrochemical respiration rate was as follows. […] Ferricyanide solution (270 μL) was then added so that the final ferricyanide concentration was 50 mM. These solutions were incubated at 37 C for 10 min. Each sample was then analyzed electrochemically using a Pt working electrode, Ag/AgCl reference electrode and a stainless steel auxilliary electrode, with an applied potential of +0.500 V. The current measured at the working electrode was integrated over the time between 60 and 120 seconds. These experiments were repeated to determine average values of integrated current (charge). The effect of ethylenediaminetetraacetate (EDTA) on electrochemical response was investigated in a similar manner. […] The samples were incubated 10 min at 37 C, and the electrochemical analysis was done as described above for lysozyme.

Assay [2] relates to Clostridium sporogenes (ATCC 8075). Description: Mediated chronocoulometric respiration assay (ferricyanide + DCIP, anaerobic). The following applies: for Mediated Chronocoulometric Respiratory Activity Remaining, Percent: average of two measurements, 20 min + 20 min at 37 C under nitrogen. Type of assay: cell-based. How it is done:
This organism was chosen as a typical gram-positive, obligate anaerobe. Growth under anaerobic conditions was accomplished using a similar medium to that used for E. coli except that the concentrations of yeast extract and tryptone were doubled and the concentration of glucose was five-fold lower for the C. sporogenes growth. Assay conditions were the same as in Example 2, with the following exceptions. The incubation of 20 μL of the bacterial suspension with 130 μL of either the blank buffer or the chloramphenicol or lysozyme solution was done for 20 min at 37 C. Mediator solution (150 μL) containing 0.10 M ferricyanide and 10 μM 2,6-dichlorophenolindophenol (DCIP) was then added and the mixture was allowed to incubate for another 20 min at 37 C, giving final concentrations of 0.050 M ferricyanide and 5 μM DCIP, respectively. All manipulations were performed under a stream of nitrogen, to ensure the absence of oxygen, which is known to inhibit the growth of C. sporogenes. Measurement by chronocoulometry was performed in an identical manner as in Example 2.

For assay [3] the test system is unchanged. The following applies: see Bergey; cited from earlier work.
Assay [4] deals with E. coli JM105. Description: Chronocoulometric mediated respiration assay (ferricyanide). Type of assay: cell-based. The method, then: At this time, a platinum disk working electrode, Ag/AgCl reference electrode and a stainless steel auxiliary electrode are inserted, and a potential of +0.50 V is applied using a potentiostat. The measured current is integrated over time to produce a plot of total charge against time. The change in total charge is measured between 60 and 120 seconds after the potential is applied. The same procedures for E. coli growth, incubation with ferricyanide and antibiotic, and measurement were used in this Example as were used in Example 2. One antibiotic was studied for the effect of concentration, and this was chloramphenicol.

≈ marks a conversion by molar mass, not a printed value. Where “and” joins values, the source holds several entries; their conditions need not be identical. Equal values may be shown once.

For `O=C(O)CN(CCN(CC(=O)O)CC(=O)O)CC(=O)O` [EDTA, Ethylenediaminetetraacetate], the “Charge, Average” value in assay [1] (5 mM EDTA, blank 38 +/− 2) was 45 +/− 2 μC. Besides, in assay [1] (5 mM EDTA in 50 mM ferricyanide, 10 min at 37 C), the Charge was 46.3 μC and 43.1 μC and 45.2 μC and 43.3 μC.

With “Lysozyme: an enzyme that destroys cell walls and is used extensively in protein purification procedures”, the “Mediated Chronocoulometric Respiratory Activity Remaining, Percent” value in assay [2] (final concentration 0.57 mg/mL) is recorded as 80%. The loss of activity is given as 20% in assay [2] (lysozyme, conditions of Example 5) and 31% in assay [1] (lysozyme, conditions of Example 3). Further, the “Charge, Average” value in assay [1] (lysozyme solution 1.5 mg/mL, blank 32 +/− 3) is 22 +/− 1 μC. Further, in assay [1] (lysozyme solution 1.5 mg/mL, 15 min at 0 C, then 10 min at 37 C with 50 mM ferricyanide), the Charge was 21.1 μC and 22.8 μC and 21.6 μC.

As to `O=C(N[C@H](CO)[C@H](O)c1ccc([N+](=O)[O-])cc1)C(Cl)Cl` [Chloramphenicol], the “Mediated Chronocoulometric Respiratory Activity Remaining, Percent” value in assay [2] (final concentration 5.00 mM) is recorded as 24%. In assay [3], the activity against growth result was “active against the growth of this strain of Clostridium”. Further, inhibition in assay [4] (Escherichia coli, JM105, from the concentration series of Table 5) was half-maximal at 48 µM (IC50). For the same molecule, in assay [4] (Escherichia coli, JM105, from the concentration series of Table 5, read-out: minimum inhibitory concentration), the MIC amounted to 0.48 µM (≈ 0.155 µg/mL). The “Mediated Chronocoulometric Respiration Activity Remaining, Percent” value in assay [4] (chloramphenicol 0.0048 μM) amounted to 95%; in assay [4] (chloramphenicol 0.048 μM), 102%; in assay [4] (chloramphenicol 0.48 μM), 66%; in assay [4] (chloramphenicol 4.8 μM), 58%; in assay [4] (chloramphenicol 48 μM) it was 52%; in assay [4] (chloramphenicol 480 μM), 35%. In addition, the “Mediated Chronocoulometric Respiration Activity Remaining, Percent” value in assay [4] (chloramphenicol 4800 μM) was 5%.
